PubChem BioAssay AID290 (DTP/NCI, 2004)
Values joined by “and” are separate entries in the source; they are usually repeats but may differ in a detail not shown here. Equal entries are not always repeated. Inconclusive results are not listed. *1 amine or outer side, *2 acyl side, *3 side chain or, on linkers, in order; H or OH if unused. Where a SMILES comes first, the peptide text is derived from it. Bridges are numbered along the chain shown (N, C = ends). Roman numbers before positions name the chains, in order. [ ]: non-standard residue; d: D form. Actinocin(9to1) = Cc1c2oc3c(C)ccc(C(=O)[*:1])c3nc-2c(C(=O)[*:2])c(N)c1=O; aThr = C[C@H](O)[C@H](N)C(=O)O; NMeV = CN[C@H](C(=O)O)C(C)C; Sar = CNCC(=O)O

System: mice, P1798 lymphosarcoma sc, survival or tumor weight T/C
Experiment: NCI In Vivo Anticancer Drug Screen. Data for tumor model P1798 Lymphosarcoma (subcutaneous) in unknown mice
Conditions: endpoint: mean tumor weight, higher = larger tumour
Procedure: The antitumor activity of compounds was measured in mice bearing transplantable tumors. Survival or tumor size were measured and the results are expressed as the measurement made in the treated group (T) divided by the measurement made in the vehicle treated control group (C). The tumor model used in this assay is P1798 Lymphosarcoma (subcutaneous) in unknown mice

[1] = dose: 25.0 mg/kg/injection, schedule: Q01DX010 (ip), vehicle: carboxymethylcellulose (CMC)
[2] = dose: 15.6 mg/kg/injection, schedule: Q01DX010 (ip), vehicle: carboxymethylcellulose (CMC)
[3] = dose: 125.0 mg/kg/injection, schedule: Q01DX010 (ip), vehicle: carboxymethylcellulose (CMC)
[4] = dose: 8.0 mg/kg/injection, schedule: Q01DX010 (ip), vehicle: saline
[5] = dose: 6.25 mg/kg/injection, schedule: Q01DX010 (ip), vehicle: carboxymethylcellulose (CMC)
[6] = dose: 12.5 mg/kg/injection, schedule: Q01DX010 (ip), vehicle: carboxymethylcellulose (CMC)

Structure (SMILES): CSc1ncnc2nc[nH]c12
- T/C [1]: 45 % of control
- T/C (dose: 50.0 mg/kg/injection, schedule: Q01DX010 (ip), vehicle: carboxymethylcellulose (CMC)): 61 % of control
- T/C (dose: 100.0 mg/kg/injection, schedule: Q01DX010 (ip), vehicle: carboxymethylcellulose (CMC)): 56 % of control

Structure (SMILES): Nc1ncnc2c1ncn2C1OC(CO)CC1O (centres undefined)
- T/C (dose: 37.5 mg/kg/injection, schedule: Q01DX010 (ip), vehicle: carboxymethylcellulose (CMC)): 111 % of control
- T/C (dose: 75.0 mg/kg/injection, schedule: Q01DX010 (ip), vehicle: carboxymethylcellulose (CMC)): 85 % of control

Structure (SMILES): CN(/N=N/N(C)c1ccccc1)c1ccccc1
- T/C [2]: 59 % of control
- T/C (dose: 31.3 mg/kg/injection, schedule: Q01DX010 (ip), vehicle: carboxymethylcellulose (CMC)): 44 % of control
- T/C (dose: 62.5 mg/kg/injection, schedule: Q01DX010 (ip), vehicle: carboxymethylcellulose (CMC)): 39 % of control
- T/C [3]: 58 % of control

Structure (SMILES): O=[n+]1c2c(n([O-])c3ccccc31)-c1cccc3cccc-2c13
- T/C (dose: 25.0 mg/kg/injection, schedule: Q01DX010 (ip), vehicle: saline): 84 % of control
- T/C (dose: 50.0 mg/kg/injection, schedule: Q01DX010 (ip), vehicle: saline): 37 % of control
- T/C (dose: 100.0 mg/kg/injection, schedule: Q01DX010 (ip), vehicle: saline): 36 % of control
- T/C (dose: 200.0 mg/kg/injection, schedule: Q01DX010 (ip), vehicle: saline): 19 % of control

Structure (SMILES): O=C(Nc1ccc(C2=NCCN2)cc1)c1ccc(C(=O)Nc2ccc(C3=NCCN3)cc2)cc1
- T/C [4]: 67 % of control
- T/C (dose: 16.0 mg/kg/injection, schedule: Q01DX010 (ip), vehicle: saline): 65 % of control
- T/C (dose: 32.0 mg/kg/injection, schedule: Q01DX010 (ip), vehicle: saline): 109 % of control
- T/C (dose: 64.0 mg/kg/injection, schedule: Q01DX010 (ip), vehicle: saline): 49 % of control

Structure (SMILES): CCCSc1ncnc2nc[nH]c12
- T/C (dose: 31.0 mg/kg/injection, schedule: Q01DX010 (ip), vehicle: carboxymethylcellulose (CMC)): 84 % of control
- T/C (dose: 62.0 mg/kg/injection, schedule: Q01DX010 (ip), vehicle: carboxymethylcellulose (CMC)): 70 % of control
- T/C [3]: 51 % of control and 52 % of control

Structure (SMILES): COc1ccc(-c2c(CC(=O)O)c3cc(OC)ccc3n2Cc2ccc(Cl)cc2)cc1
- T/C (dose: 125.0 mg/kg/injection, schedule: Q01DX010 (ip), vehicle: saline): 105 % of control
- T/C (dose: 250.0 mg/kg/injection, schedule: Q01DX010 (ip), vehicle: saline): 108 % of control
- T/C (dose: 500.0 mg/kg/injection, schedule: Q01DX010 (ip), vehicle: saline): 112 % of control
- T/C (dose: 1000.0 mg/kg/injection, schedule: Q01DX010 (ip), vehicle: saline): 110 % of control

Structure (SMILES): N=C(N)SCc1c2ccccc2c(CSC(=N)N)c2ccccc12
- T/C (dose: 2.5 mg/kg/injection, schedule: Q01DX011 (ip), vehicle: carboxymethylcellulose (CMC)): 85 % of control
- T/C (dose: 5.0 mg/kg/injection, schedule: Q01DX011 (ip), vehicle: carboxymethylcellulose (CMC)): 99 % of control
- T/C (dose: 10.0 mg/kg/injection, schedule: Q01DX011 (ip), vehicle: carboxymethylcellulose (CMC)): 50 % of control
- T/C (dose: 20.0 mg/kg/injection, schedule: Q01DX011 (ip), vehicle: carboxymethylcellulose (CMC)): 40 % of control

Structure (SMILES): CCCCNc1ncnc2c1cnn2C
- T/C [5]: 63 % of control
- T/C [6]: 97 % of control
- T/C [1]: 57 % of control

Structure (SMILES): c1ccc(CNc2ncnc3[nH]ncc23)cc1
- T/C [2]: 82 % of control

Structure (SMILES): [I][Hg][CH2]C1COC([CH2][Hg][I])CO1 (centres undefined)
- T/C (dose: 1.8 mg/kg/injection, schedule: Q01DX010 (ip), vehicle: carboxymethylcellulose (CMC)): 64 % of control
- T/C (dose: 3.75 mg/kg/injection, schedule: Q01DX010 (ip), vehicle: carboxymethylcellulose (CMC)): 85 % of control
- T/C (dose: 7.5 mg/kg/injection, schedule: Q01DX010 (ip), vehicle: carboxymethylcellulose (CMC)): 81 % of control
- T/C (dose: 30.0 mg/kg/injection, schedule: Q01DX010 (ip), vehicle: carboxymethylcellulose (CMC)): 65 % of control

Structure (SMILES): O=C(O)C(=O)c1ccc(-c2ccccc2)cc1
- T/C (dose: 31.0 mg/kg/injection, schedule: Q01DX010 (ip), vehicle: methylcellulose (MC)): 82 % of control
- T/C (dose: 62.5 mg/kg/injection, schedule: Q01DX010 (ip), vehicle: methylcellulose (MC)): 87 % of control
- T/C (dose: 125.0 mg/kg/injection, schedule: Q01DX010 (ip), vehicle: methylcellulose (MC)): 106 % of control

Structure (SMILES): O=C(Nc1ccc(C2=NCCN2)cc1)c1ccc(C(=O)Nc2ccc(C3=NCCN3)cc2)c(Cl)c1
- T/C (dose: 12.5 mg/kg/injection, schedule: Q01DX010 (ip), vehicle: water): 70 % of control
- T/C (dose: 14.0 mg/kg/injection, schedule: Q01DX011 (ip), vehicle: carboxymethylcellulose (CMC)): 7 % of control
- T/C (dose: 28.0 mg/kg/injection, schedule: Q01DX001 (ip), vehicle: carboxymethylcellulose (CMC)): 80 % of control
- T/C (dose: 55.0 mg/kg/injection, schedule: Q01DX001 (ip), vehicle: carboxymethylcellulose (CMC)): 33 % of control

Structure (SMILES): Cc1c2oc3c(C)ccc(C(=O)N[C@@H]4C(=O)N[C@H](C(C)C)C(=O)N5CCC[C@H]5C(=O)N(C)CC(=O)N(C)[C@@H](C(C)C)C(=O)O[C@H]4C)c3nc-2c(C(=O)N[C@@H]2C(=O)N[C@H](C(C)C)C(=O)N3CCC[C@H]3C(=O)N(C)CC(=O)N(C)[C@@H](C(C)C)C(=O)O[C@H]2C)c(N)c1=O (I: [aThr][dV]P[Sar][NMeV] / II: [aThr][dV]P[Sar][NMeV]; ester I:1-I:C, II:1-II:C; linker I:N-II:N via Actinocin(9to1))
- T/C (dose: 2.0 micrograms/kg/injection, schedule: Q01DX010 (ip), vehicle: saline): 117 % of control
- T/C (dose: 20.0 micrograms/kg/injection, schedule: Q01DX010 (ip), vehicle: saline): 46 % of control

Structure (SMILES): CC(CCC(C)OS(C)(=O)=O)OS(C)(=O)=O (centres undefined)
- T/C (dose: 5.0 mg/kg/injection, schedule: Q01DX010 (ip), vehicle: carboxymethylcellulose (CMC)): 72 % of control
- T/C (dose: 10.0 mg/kg/injection, schedule: Q01DX010 (ip), vehicle: carboxymethylcellulose (CMC)): 93 % of control
- T/C (dose: 20.0 mg/kg/injection, schedule: Q01DX010 (ip), vehicle: carboxymethylcellulose (CMC)): 102 % of control
- T/C (dose: 40.0 mg/kg/injection, schedule: Q01DX010 (ip), vehicle: carboxymethylcellulose (CMC)): 83 % of control

Structure (SMILES): S=P(N1CCOCC1)(N1CC1)N1CC1
- T/C [5]: 82 % of control
- T/C [6]: 60 % of control

Structure (SMILES): CC/C(=C(/CC)c1ccc(O)cc1)c1ccc(O)cc1
- T/C (dose: 62.5 mg/kg/injection, schedule: Q01DX010 (sc), vehicle: steriod suspending solution): 64 % of control
- T/C (dose: 125.0 mg/kg/injection, schedule: Q01DX010 (sc), vehicle: steriod suspending solution): 83 % of control
- T/C (dose: 500.0 mg/kg/injection, schedule: Q01DX010 (sc), vehicle: steriod suspending solution): 39 % of control

Structure (SMILES): c1ccc(COCC[P+](c2ccccc2)(c2ccccc2)c2ccccc2)cc1
- T/C (dose: 5.0 mg/kg/injection, schedule: Q01DX010 (ip), vehicle: saline): 53 % of control
- T/C [4]: 49 % of control

Structure (SMILES): C[C@]12CCC(=O)C=C1CC[C@H]1[C@@H]3CC[C@](O)(C(=O)CO)[C@@]3(C)C[C@H](O)[C@@]12F
- T/C (dose: 0.5 mg/kg/injection, schedule: Q01DX011 (sc), vehicle: steriod suspending solution): 76 % of control
- T/C (dose: 1.0 mg/kg/injection, schedule: Q01DX011 (sc), vehicle: steriod suspending solution): 36 % of control
- T/C (dose: 2.0 mg/kg/injection, schedule: Q01DX011 (sc), vehicle: steriod suspending solution): 61 % of control
- T/C (dose: 2.5 mg/kg/injection, schedule: Q01DX015 (ip), vehicle: carboxymethylcellulose (CMC)): 103 % of control
- T/C (dose: 3.5 mg/kg/injection, schedule: Q01DX011 (sc), vehicle: steriod suspending solution): 64 % of control
- T/C (dose: 5.0 mg/kg/injection, schedule: Q01DX015 (ip), vehicle: carboxymethylcellulose (CMC)): 105 % of control

Structure (SMILES): C[C@]12CCC(=O)C=C1CC[C@@H]1[C@@H]2C(=O)C[C@@]2(C)[C@H]1CC[C@]2(O)C(=O)CO
- T/C (dose: 100.0 mg/kg/injection, schedule: Q01DX010 (sc), vehicle: steriod suspending solution): 7 % of control
- T/C (dose: 200.0 mg/kg/injection, schedule: Q01DX010 (sc), vehicle: steriod suspending solution): 1 % of control
